From BindingDB's records for doi:10.7270/Q2RB7317 (Nmmlsc, 2009) come the findings set out here.

The assay has as its target Ras-related C3 botulinum toxin substrate 1 (Mus musculus, UniProt P63001). The experiment in a line: analog inhibition of wildtype Rac1 nucleotide loading – biochemical, additional analogs, multiplex bead flow cytometry, SAR follow-up (AID 2040).

A word on the Ki: it is a measure of affinity in units of concentration, obtained from inhibition or displacement. Consider `O=C1Nc2c(F)cccc2C1=C1Nc2ccccc2C1=O`, for which affinity was put at a Ki of 3230 nM. This lies in the single-digit micromolar range.

`O=C1NC(=O)/C(=C2/C(=O)Nc3ccccc32)N1` showed a Ki of 250 nM. This Ki is about 13-fold lower than that of the compound before.

In turn, `O=C1Nc2ccc(Br)cc2C1=C1Nc2ccccc2C1=O` showed an inhibitory constant (Ki) of 1510 nM.

Compound `O=C1NC(=S)N/C1=C1\C(=O)Nc2ccccc21` [(3Z)-3-(5-oxo-2-sulfanylideneimidazolidin-4-ylidene)-1H-indol-2-one] gave a Ki of 160 nM.
